This note sets out measurements from patent US11590116B2 (THERAVANCE BIOPHARMA R&D IP, LLC, priority 2019, dated 2023).

Bounds are passed on as bounds.

For assay [1], the target named is T1, recombinant human ALK5 (TGF-βR1) protein (Homo sapiens, UniProt P36897).
T1 construct: purchased Life Technologies PR9075A
T1 sequence (P36897 34-503): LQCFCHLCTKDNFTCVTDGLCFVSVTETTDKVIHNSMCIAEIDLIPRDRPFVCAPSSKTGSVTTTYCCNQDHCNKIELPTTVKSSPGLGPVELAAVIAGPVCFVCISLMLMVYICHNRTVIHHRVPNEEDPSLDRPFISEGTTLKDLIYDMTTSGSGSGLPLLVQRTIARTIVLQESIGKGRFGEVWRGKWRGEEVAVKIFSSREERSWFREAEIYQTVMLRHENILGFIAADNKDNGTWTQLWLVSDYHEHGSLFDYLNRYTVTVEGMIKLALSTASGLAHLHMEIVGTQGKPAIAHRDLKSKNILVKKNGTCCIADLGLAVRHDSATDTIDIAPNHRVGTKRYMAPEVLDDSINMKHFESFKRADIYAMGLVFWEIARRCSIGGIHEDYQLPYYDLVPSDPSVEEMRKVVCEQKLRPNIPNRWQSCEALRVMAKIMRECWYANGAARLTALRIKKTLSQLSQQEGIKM
The assay is described as follows: Biochemical ALK5 (TGF-βR1) assay to measure pKi (LANCE Ultra ULight kinase assay). The following applies: apparent pKi from pIC50 by Cheng-Prusoff, read-out: ALK5 pKi (converted). Put shortly:
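Compounds (10 μM to 25 pM) preincubated 60 minutes at room temperature with enzyme, then reaction run 60 minutes at 37° C with ATP added as 125 μM (5× final). Stopped with EDTA plus Eu-anti-phospho-Topoisomerase 2-alpha (Thr1342) antibody, TR-FRET read at 665 nm; pIC50 converted to pKi via Cheng-Prusoff.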
A general note: In TR-FRET formats the signal depends on donor and acceptor labels being close together.

The subject of assay [2] is TGF-β-stimulated SMAD3 phosphorylation in BEAS-2B cells. Kind of assay: Cellular ALK5 potency assay, inhibition of TGF-β stimulated pSMAD3 formation in BEAS-2B cells. The class given is cell-based. The conditions noted are these: Homo sapiens; inhibition of TGF-β stimulated pSMAD3 formation, BEAS-2B cells; read-out: BEAS2B pIC50 (converted). Put shortly:
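AlphaLISA pSMAD3 read-out, beads incubated overnight. Human BEAS-2B cells: 1 h compound preincubation (37 °C, 5% CO2), then 30 min TGF-β at 10 ng/mL final, immediate lysis. Values are pIC50 relative to stimulated, compound-free baseline.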

For the compound `Cc1cccc(-c2[nH]cnc2-c2ccc3ncc(C4=CCC(C(=O)O[C@@H]5CCN(C)C5)CC4)cc3c2)n1` (stereo partly drawn) [Compound 710, [(3R)-1-methylpyrrolidin-3-yl] 4-[6-[5-(6-methyl-2-pyridyl)-1H-imidazol-4-yl]-3-quinolyl]cyclohex-3-ene-1-carboxylate], the Ki in assay [1] is 0.0398 to 0.316 nM. Moreover, the IC50 in assay [2] was 25.1 to 158 nM.

Consider `Cc1cccc(-c2[nH]ncc2-c2ccc3ncc(C(=O)OC4CCNCC4)cc3n2)n1` [Compound 485, 4-piperidyl 6-[5-(6-methyl-2-pyridyl)-1H-pyrazol-4-yl]-1,5-naphthyridine-3-carboxylate], for which the Ki in assay [1] is 0.0398 to 0.316 nM. Also, the IC50 in assay [2] was 25.1 to 158 nM.

Turning to `Cc1cccc(-c2[nH]cnc2-c2ccc3ncc(C(=O)OCCC4CCNCC4)cc3c2)n1` [Compound 1048, 2-(4-piperidyl)ethyl 6-[5-(6-methyl-2-pyridyl)-1H-imidazol-4-yl]quinoline-3-carboxylate], in assay [1], the Ki is 0.0398 to 0.316 nM. Besides, the IC50 in assay [2] was 25.1 to 158 nM.

`Cc1cccc(-c2[nH]cnc2-c2ccc3ncc(NCC(=O)O)cc3c2)n1` [Compound 1162, 2-[[6-[5-(6-methyl-2-pyridyl)-1H-imidazol-4-yl]-3-quinolyl]amino]acetic acid]: in assay [1], the Ki was 0.398 to 3.16 nM. For the same compound, the IC50 in assay [2] was 200 to 1260 nM.

Take `Cc1cccc(-c2[nH]cnc2-c2ccc3ncc(C(=O)OCCCN4CCC5(CC4)CNC5)cc3c2)n1` [Compound 904, 3-(2,7-diazaspiro[3.5]nonan-7-yl)propyl 6-(5-(6-methylpyridin-2-yl)-1H-imidazol-4-yl)quinoline-3-carboxylate]: the Ki in assay [1] was 0.0398 to 0.316 nM. Moreover, in assay [2], the IC50 is 200 to 1260 nM.

In the case of `Cc1cccc(-c2[nH]cnc2-c2ccc3ncc(-c4cn5c(n4)CNCC5)cc3c2)n1` [Compound 645, 6-[5-(6-methyl-2-pyridyl)-1H-imidazol-4-yl]-3-(5,6,7,8-tetrahydroimidazo[1,2-a]pyrazin-2-yl)quinoline], in assay [1], the Ki is 0.0398 to 0.316 nM. Besides, in assay [2], the IC50 is 200 to 1260 nM.

Consider `Cc1cccc(-c2[nH]cnc2-c2ccc3ncc(-c4nc(C(=O)OCC5CNC5)cs4)cc3c2)n1` [Compound 746, azetidin-3-ylmethyl 2-[6-[5-(6-methyl-2-pyridyl)-1H-imidazol-4-yl]-3-quinolyl]thiazole-4-carboxylate], for which the Ki in assay [1] is less than 0.0316 nM. For the same compound, the IC50 in assay [2] was 25.1 to 158 nM.

Regarding `Cc1cccc(-c2n[nH]cc2-c2ccc3nccc(NC(=O)CCN4CCOCC4)c3n2)n1` [Compound 841, N-[6-[3-(6-methyl-2-pyridyl)-1H-pyrazol-4-yl]-1,5-naphthyridin-4-yl]-3-morpholino-propanamide], the Ki in assay [1] was 0.398 to 3.16 nM. Also, the IC50 in assay [2] was 25.1 to 158 nM.

With `CNC1(Cn2cc(-c3cnc4ccc(-c5c[nH]nc5-c5ccc(F)c(C)n5)nc4c3)cn2)CC1` [Compound 97, 1-[[4-[6-[3-(5-fluoro-6-methyl-2-pyridyl)-1H-pyrazol-4-yl]-1,5-naphthyridin-3-yl]pyrazol-1-yl]methyl]-N-methyl-cyclopropanamine], the Ki in assay [1] was less than 0.0316 nM. In addition, the IC50 in assay [2] was less than 20 nM.

With `Cc1cccc(-c2[nH]cnc2-c2ccc3ncc(C(=O)O[C@H]4CCN(C)C4)cc3c2)n1` [Compound 724, [(3S)-1-methylpyrrolidin-3-yl] 6-[5-(6-methyl-2-pyridyl)-1H-imidazol-4-yl]quinoline-3-carboxylate], the Ki in assay [1] was 0.398 to 3.16 nM. Further, the IC50 in assay [2] is 25.1 to 158 nM.

For the compound `Cc1nc(-c2nc3ccccn3c2-c2ccc3ncc(-c4cn[nH]c4)cc3n2)ccc1F` [Compound 169, 2-[2-(5-fluoro-6-methyl-2-pyridyl)imidazo[1,2-a]pyridin-3-yl]-7-(1H-pyrazol-4-yl)-1,5-naphthyridine], the Ki in assay [1] was 0.0398 to 0.316 nM. For the same compound, in assay [2], the IC50 is less than 20 nM.

For the compound `Cc1cccc(-c2[nH]cnc2-c2ccc3ncc(-c4cnc(C(=O)OC5CCNCC5)nc4)cc3c2)n1` [Compound 1131, 4-piperidyl 5-[6-[5-(6-methyl-2-pyridyl)-1H-imidazol-4-yl]-3-quinolyl]pyrimidine-2-carboxylate], in assay [1], the Ki was 0.0398 to 0.316 nM. Further, in assay [2], the IC50 is 200 to 1260 nM.

Take `Cc1cccc(-c2n[nH]cc2-c2ccc3ncc(C(=O)NCCCN4CCN(C(C)C)CC4)cc3n2)n1` [Compound 55, N-[3-(4-isopropylpiperazin-1-yl)propyl]-6-[3-(6-methyl-2-pyridyl)-1H-pyrazol-4-yl]-1,5-naphthyridine-3-carboxamide]: the Ki in assay [1] was 0.0398 to 0.316 nM. The IC50 in assay [2] is 200 to 1260 nM.

Consider `Cc1cccc(-c2n[nH]cc2-c2ccc3ncc(N4CCN(CCO)CC4)cc3n2)n1` [Compound 639, 2-[4-[6-[3-(6-methyl-2-pyridyl)-1H-pyrazol-4-yl]-1,5-naphthyridin-3-yl]piperazin-1-yl]ethanol], for which the Ki in assay [1] was less than 0.0316 nM. In addition, in assay [2], the IC50 was 25.1 to 158 nM.

As for `Cc1cccc(-c2n[nH]cc2-c2ccc3ncc(-c4nnc5n4CCN5)cc3n2)n1` [Compound 102, 7-(6,7-dihydro-5H-imidazo[2,1-c][1,2,4]triazol-3-yl)-2-[3-(6-methyl-2-pyridyl)-1H-pyrazol-4-yl]-1,5-naphthyridine], the Ki in assay [1] is 0.0398 to 0.316 nM. The IC50 in assay [2] was 1580 to 10000 nM.

For `Cc1cccc(-c2n[nH]cc2-c2ccc3ncc(N4CCC(N5CCN(C)CC5)CC4)cc3n2)n1` [Compound 205, 7-[4-(4-methylpiperazin-1-yl)-1-piperidyl]-2-[3-(6-methyl-2-pyridyl)-1H-pyrazol-4-yl]-1,5-naphthyridine], in assay [1], the Ki is 0.0398 to 0.316 nM. In assay [2], the IC50 was 25.1 to 158 nM.

Regarding `Cc1cccc(-c2n[nH]cc2-c2ccc3ncc(NC(=O)CN4CCOCC4)cc3n2)n1` [Compound 353, N-[6-[3-(6-methyl-2-pyridyl)-1H-pyrazol-4-yl]-1,5-naphthyridin-3-yl]-2-morpholino-acetamide], in assay [1], the Ki was 0.0398 to 0.316 nM. Also, in assay [2], the IC50 is 25.1 to 158 nM.

Turning to `Cc1cccc(-c2[nH]cnc2-c2ccc3ncc(-c4nccc(C(=O)OC5CCNCC5)n4)cc3c2)n1` [Compound 1102, 4-piperidyl 2-[6-[5-(6-methyl-2-pyridyl)-1H-imidazol-4-yl]-3-quinolyl]pyrimidine-4-carboxylate], in assay [1], the Ki was 0.0398 to 0.316 nM. For the same compound, in assay [2], the IC50 is 200 to 1260 nM.

In the case of `Cc1cccc(-c2[nH]cnc2-c2ccc3ncc(NCCC4CCNCC4)cc3c2)n1` [Compound 496, 6-[5-(6-methyl-2-pyridyl)-1H-imidazol-4-yl]-N-[2-(4-piperidyl)ethyl]quinolin-3-amine], the Ki in assay [1] was 0.0398 to 0.316 nM. Besides, the IC50 in assay [2] is 25.1 to 158 nM.

`Cc1cccc(-c2[nH]ncc2-c2ccc3nccc(C(=O)O)c3c2)n1` [Compound 1064, 6-[5-(6-methyl-2-pyridyl)-1H-pyrazol-4-yl]quinoline-4-carboxylic acid]: the Ki in assay [1] is 3.98 to 31.6 nM. The IC50 in assay [2] was 1580 to 10000 nM.

As to `Cc1cccc(-c2[nH]cnc2-c2ccc3ncc(C(=O)O)cc3c2)n1` [Compound 796, 6-[5-(6-methyl-2-pyridyl)-1H-imidazol-4-yl]quinoline-3-carboxylic Acid], in assay [1], the Ki is 3.98 to 31.6 nM. Also, the IC50 in assay [2] is 1580 to 10000 nM.

Take `Cc1cccc(-c2n[nH]cc2-c2ccc3ncc(C4=CCCC4)cc3n2)n1` [Compound 88, 7-(cyclopenten-1-yl)-2-[3-(6-methyl-2-pyridyl)-1H-pyrazol-4-yl]-1,5-naphthyridine]: the Ki in assay [1] is less than 0.0316 nM. Also, the IC50 in assay [2] is less than 20 nM.

Regarding `Cc1cccc(-c2n[nH]cc2-c2ccc3ncc(N4CC(N5CCOCC5)C4)cc3n2)n1` [Compound 156, 4-[1-[6-[3-(6-methyl-2-pyridyl)-1H-pyrazol-4-yl]-1,5-naphthyridin-3-yl]azetidin-3-yl]morpholine], the Ki in assay [1] was less than 0.0316 nM. Also, the IC50 in assay [2] is less than 20 nM.

Regarding `Cc1cccc(-c2n[nH]cc2-c2ccc3ncc(-c4cn(CCN5CCOCC5)nn4)cc3n2)n1` [Compound 340, 4-[2-[4-[6-[3-(6-methyl-2-pyridyl)-1H-pyrazol-4-yl]-1,5-naphthyridin-3-yl]triazol-1-yl]ethyl]morpholine], the Ki in assay [1] is 0.0398 to 0.316 nM. The IC50 in assay [2] is 25.1 to 158 nM.

In the case of `Cc1cccc(-c2n[nH]cc2-c2ccc3ncc(-c4nc5c([nH]4)CCNC5)cc3n2)n1` [Compound 134, 2-[3-(6-methyl-2-pyridyl)-1H-pyrazol-4-yl]-7-(4,5,6,7-tetrahydro-1H-imidazo[4,5-c]pyridin-2-yl)-1,5-naphthyridine], the Ki in assay [1] was 0.0398 to 0.316 nM. Besides, in assay [2], the IC50 was 1580 to 10000 nM.

Consider `Cc1cccc(-c2n[nH]cc2-c2ccc3ncc(NCC4CNCCN4)cc3n2)n1` (stereo not drawn) [Compound 269, 6-[3-(6-methyl-2-pyridyl)-1H-pyrazol-4-yl]-N-(piperazin-2-ylmethyl)-1,5-naphthyridin-3-amine], for which, in assay [1], the Ki is 0.0398 to 0.316 nM. For the same compound, the IC50 in assay [2] was 1580 to 10000 nM.

Turning to `Cc1cccc(-c2[nH]cnc2-c2ccc3ncc(C(=O)OCCN)cc3c2)n1` [Compound 1040, 2-aminoethyl 6-[5-(6-methyl-2-pyridyl)-1H-imidazol-4-yl]quinoline-3-carboxylate], the Ki in assay [1] was 0.398 to 3.16 nM. In addition, the IC50 in assay [2] was 25.1 to 158 nM.
